Experimental data taken from patent US5525328A, “Nanoparticulate diagnostic diatrizoxy ester X-ray contrast agents for blood pool and lymphatic system imaging” (NanoSystems L.L.C., priority 1994, dated 1996).

Key:
[1] = tested on: lymph; test: Lymphographic imaging by CT; format: in vivo, New Zealand White Rabbits; conditions: autoclaved Pluronic F-108/PEG 400 formulation; 2 injections (0.25 ml) per paw
Experimental: (§1) This formulation was evaluated at CIPR for both blood pool and lymphographic imaging in New Zealand White Rabbits using the above-described protocol (3 ml/kg) for blood pool imaging and 2 injections (0.25 ml) per paw for lymphography. […] Scanning was carried out using a Toshiba 900S Imager CT scanner and image density was calculated from iodinated standards imaged simultaneously with the animals.

[2] = Particle size after autoclaving at 121° C. for 20 min. (heat stability); format: physicochemical
Experimental: (§2) Compound 2 was added to each of 3×1.5 oz brown glass bottles containing approximately 12 ml of zirconium silicate (1.1 mm dia.) beads in an amount sufficient to be 15% (w/v) of the final suspension. Bottle A contained 3% (w/v) Pluronic F-68. Bottle B contained 3% (w/v) Pluronic F108. Bottle C contained 3% (w/v) Tetronic T-908. The resulting suspensions were milled on a roller mill at approximately 150 rpm for a total of 9 days. Estimates of particle size determined at various intervals were as detailed below:
0.1% (w/v) DOSS was added to the F108 and T908 samples for autoclaving as cloud point modifiers.
(§3) Compound 2 was milled with zirconium silicate (1.1 mm dia) beads in the presence of Pluronic F-108 for 3 days. The final particle size was determined to be 235 nm. At this point, sterile PEG 400 was added to the suspension such that at completion, the formulation contained 15% (w/v) WIN 70146, 3% (w/v) Pluronic F-108, and 10% (w/v) PEG 400. This formulation was then autoclaved under standard conditions, i.e., 121° C. for 20 min., resulting in a final particle size of 248 nm.

[3] = Particle size after milling (light scattering); format: physicochemical
Experimental: 15% Compound 2 was milled with 4% Pluronic F-108 in the presence of zirconium silicate (1.1 mm dia) beads for 3 days under aseptic conditions. No additional salts or surfactants were added. The average particle size of the resulting nanoparticle suspension was 162 nm as determined by light scattering.
as §3

[4] = tested on: liver; test: CT imaging, liver opacification and clearance; format: in vivo, white New Zealand rabbits
Experimental: (§4) This sample was examined for imaging efficacy at the Center for Imaging and Pharmaceutical Research (CIPR) at the Massachusetts General Hospital in Charlestown, Mass. The sample was injected into white New Zealand rabbits at a dose of 3 ml/kg as a slow bolus injection. At times of 5, 15, 30, 60 and 120 min. post injection, the opacification of the liver, spleen, and blood pool as measured in the aorta and within the left ventricle was determined by computed tomography (CT) using a Toshiba 900S Imager CT scanner and associated software.

[5] = Aqueous solubility relative to the butyrate ester; format: physicochemical
[6] = tested on: spleen; test: CT imaging, spleen opacification and clearance; format: in vivo, white New Zealand rabbits
Experimental: as §4, with “[…],” for “At times of 5, 15, 30, 60 and 120 min. post injection,”

[7] = Particle size after storage for 1 additional week at room temperature (shelf stability); format: physicochemical; conditions: with both F108 and T908
Experimental: as §2, with “below: […]” for “below:”

[8] = tested on: blood pool; test: CT imaging, blood pool opacification and clearance; format: in vivo, white New Zealand rabbits
Experimental: as §4, §1

[9] = Crystal forms / polymorphism on recrystallization; format: physicochemical; conditions: e.g., when recrystallized from various solvents
[10] = 15% Compound 2, 4% Pluronic F-108, 3 ml/kg slow bolus
[11] = 24 hours post injection, 3 ml/kg

Row | Final particle size after autoclaving ([2]; 15% (w/v) compound, 3% (w/v) Pluronic F-108, 10% (w/v) PEG 400, 121° C. for 20 min.) [nm] | Stability to heat autoclaving ([2]; with both F108 and T908) | Average particle size ([3]; 15% Compound 2, 4% Pluronic F-108, milled 3 days, light scattering) [nm] | Final particle size after milling ([3]; Pluronic F-108, milled 3 days, before PEG 400 and autoclaving) [nm] | Clearance from the liver [4, 11] | Aqueous solubility, times lower than ethyl 2-(3,5-bis(acetylamino)-2,4,6-triiodobenzoyloxy)butyrate [5] | Clearance from the spleen [6, 11] | Clearance from the blood [8, 11] | Structure (SMILES) | Lymphography level of opacification [1] | Lymphography performance [1] | Liver opacification, duration [4, 10] [min] | Liver opacification, grade [4, 10] | Spleen opacification, duration [6, 10] [min] | Spleen opacification, grade [6, 10] | Shelf stability [7] | Blood pool opacification, duration [8, 10] [min] | Blood pool opacification, grade [8, 10] | Blood pool opacification, duration ([8]; autoclaved Pluronic F-108/PEG 400 formulation, 3 ml/kg) | Stability during autoclaving ([2]; nanoparticulate formulations, conventional heat sterilization) | Crystal forms [9]
1 | 248 | excellent stability to heat autoclaving | 162 | 235 | partial clearance | about 40 times | partial clearance | complete clearance | CCCCC(OC(=O)c1c(I)c(NC(C)=O)c(I)c(NC(C)=O)c1I)C(=O)OCC (centres unmarked) [Compound 2, ethyl 2-(3,5-diacetamido-2,4,6-triiodobenzoyloxy)hexanoate] | highest level of opacification noted to date in this indication | excellent lymphography agent | 120 | very good | 120 | very good | excellent stability to heat autoclaving and shelf stability | > 30 | excellent | at least 30 min |  | 
2 |  |  |  |  |  |  |  |  | CCOC(=O)C(CC)OC(=O)c1c(I)c(NC(C)=O)c(I)c(NC(C)=O)c1I (centres unmarked) [ethyl 2-(3,5-bis(acetylamino)-2,4,6-triiodobenzoyloxy)butyrate, reference compound] |  |  |  |  |  |  |  |  |  |  | do not exhibit good stability during autoclaving | exhibits multiple crystal forms, i.e., polymorphs
